± gives the standard deviation of the averaged measurements.
Tests used:
XAV-939 [1] = compound: T1, Oc1nc(-c2ccc(C(F)(F)F)cc2)nc2c1CSCC2 [XAV-939]; assay: surviving fraction relative to DMSO-only wells; higher = less growth inhibition; settings: exposure time: 5 days
Procedure, shortened: (§1)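 Viability values are CellTiter-Glo luminescence readings, given as surviving fraction against the median of DMSO-only wells. The readings were taken after 10 minutes at room temperature, following five days of continuous exposure to inhibitors at 0.5, 1, 5, 10, 50, 100, 500 and 1000 nM that began 24 hours after log-phase tumour cell lines were seeded at 250–500 cells per well in 384-well plates. Every line was screened three times and kept only if replicate Pearson r >0.7 and median Z' >0.3.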

[2] = compound: CNCc1ccc(-c2[nH]c3cc(F)cc4c3c2CCNC4=O)cc1; assay: as above; settings: exposure time: 5 days
Procedure, shortened: as §1

OLAPARIB = compound: O=C(c1cc(Cc2n[nH]c(=O)c3ccccc23)ccc1F)N1CCN(C(=O)C2CC2)CC1 [OLAPARIB]; assay: area under dose-response curve of surviving fraction (unscaled, Aref=0) (surviving fraction x log10(nM)); higher = more resistant; settings: exposure time: 5 days; dose range 0.5-1000 nM
Procedure, shortened: (§2)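 Three screens per tumour cell line were run in 384-well plates at eight inhibitor concentrations from 0.5 to 1000 nM over five days. Surviving fractions, from CellTiter-Glo luminescence normalised to DMSO-only wells, were fitted with 3-parameter logistic curves in the drc R package. The reported area under the curve is the unscaled activity area. It spans log10 dose, and Aref is 0.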

XAV-939 [3] = compound: T1, XAV-939; assay: as above; settings: exposure time: 5 days; dose range 0.5-1000 nM
Procedure, shortened: as §2

[4] = compound: CNCc1ccc(-c2[nH]c3cc(F)cc4c3c2CCNC4=O)cc1; assay: as above; settings: exposure time: 5 days; dose range 0.5-1000 nM
Procedure, shortened: as §2

CRIZOTINIB = compound: C[C@@H](Oc1cc(-c2cnn(C3CCNCC3)c2)cnc1N)c1c(Cl)ccc(F)c1Cl [CRIZOTINIB]; assay: as above; settings: exposure time: 5 days; dose range 0.5-1000 nM
Procedure, shortened: as §2

Test System | surviving fraction (XAV-939 [1]; 0.5 nM) | surviving fraction (XAV-939 [1]; 1 nM) | surviving fraction (XAV-939 [1]; 5 nM) | surviving fraction (XAV-939 [1]; 10 nM) | surviving fraction (XAV-939 [1]; 50 nM) | surviving fraction (XAV-939 [1]; 100 nM) | surviving fraction (XAV-939 [1]; 500 nM) | surviving fraction (XAV-939 [1]; 1000 nM) | surviving fraction ([2]; 0.5 nM) | surviving fraction ([2]; 1 nM) | surviving fraction ([2]; 5 nM) | surviving fraction ([2]; 10 nM) | surviving fraction ([2]; 50 nM) | surviving fraction ([2]; 100 nM) | surviving fraction ([2]; 500 nM) | surviving fraction ([2]; 1000 nM) | area under dose-response curve (OLAPARIB) | area under dose-response curve (XAV-939 [3]) | area under dose-response curve [4] | area under dose-response curve (CRIZOTINIB)
143B BONE | 0.977 ± 0.026 | 1.02 ± 0.012 | 0.952 ± 0.14 | 1.02 ± 0.042 | 0.911 ± 0.15 | 1.03 ± 0.044 | 0.922 ± 0.069 | 1.02 ± 0.023 | 1.02 ± 0.037 | 1.04 ± 0.011 | 1.07 ± 0.037 | 1.1 ± 0.073 | 1.11 ± 0.14 | 1.04 ± 0.046 | 1.07 ± 0.15 | 1.04 ± 0.067 | 3.36 |  |  | 
BT20 BREAST | 1.08 ± 0.19 | 1.06 ± 0.043 | 1.05 ± 0.079 | 1.05 ± 0.051 | 1.08 ± 0.14 | 1.14 ± 0.05 | 1.26 ± 0.057 | 1.23 ± 0.1 | 1.09 ± 0.095 | 1.05 ± 0.055 | 1.03 ± 0.081 | 1.04 ± 0.059 | 0.792 ± 0.14 | 0.814 ± 0.046 | 0.815 ± 0.11 | 0.872 ± 0.014 | 2.92 | 3.66 | 3.01 | 
BT549 BREAST | 1.16 ± 0.085 | 1.19 ± 0.079 | 1.03 ± 0.077 | 1.16 ± 0.082 | 1.18 ± 0.044 | 1.08 ± 0.091 | 0.884 ± 0.014 | 0.872 ± 0.091 | 0.958 ± 0.011 | 1.01 ± 0.16 | 0.972 ± 0.078 | 1.04 ± 0.081 | 0.753 ± 0.13 | 0.818 ± 0.073 | 0.828 ± 0.069 | 0.881 ± 0.056 | 2.76 |  | 3 | 3.2
CAL72 BONE | 1.07 ± 0.023 | 1.05 ± 0.013 | 0.999 ± 0.015 | 0.976 ± 0.023 | 0.944 ± 0.012 | 0.957 ± 0.029 | 0.916 ± 0.038 | 0.9 ± 0.025 | 1.09 ± 0.041 | 1.072 ± 0.0085 | 1.1 ± 0.026 | 1.08 ± 0.016 | 0.999 ± 0.073 | 0.961 ± 0.075 | 0.962 ± 0.032 | 0.902 ± 0.019 | 3.24 | 3.18 | 3.26 | 
CME SYNOVIAL | 1.27 ± 0.24 | 1.2 ± 0.093 | 1.25 ± 0.16 | 1.3 ± 0.093 | 1.29 ± 0.14 | 1.3 ± 0.071 | 1.1 ± 0.03 | 0.952 ± 0.094 | 1.16 ± 0.072 | 1.25 ± 0.097 | 1.11 ± 0.18 | 1.11 ± 0.18 | 0.693 ± 0.18 | 0.556 ± 0.094 | 0.373 ± 0.08 | 0.301 ± 0.015 | 2.56 | 4.09 | 2.5 | 
DU4475 BREAST | 1.02 ± 0.28 | 0.857 ± 0.17 | 0.884 ± 0.18 | 1.05 ± 0.12 | 1.07 ± 0.17 | 1.16 ± 0.18 | 1.15 ± 0.33 | 1.1 ± 0.25 | 1.02 ± 0.066 | 0.921 ± 0.1 | 0.969 ± 0.03 | 0.881 ± 0.063 | 0.807 ± 0.12 | 0.696 ± 0.053 | 0.612 ± 0.088 | 0.479 ± 0.074 |  |  | 2.68 | 2.9
HCC202 BREAST | 1.4 ± 0.094 | 1.23 ± 0.2 | 1.17 ± 0.094 | 0.972 ± 0.14 | 1.12 ± 0.18 | 0.905 ± 0.077 | 1.04 ± 0.2 | 0.953 ± 0.065 | 0.936 ± 0.073 | 1.2 ± 0.39 | 1.21 ± 0.31 | 1.08 ± 0.087 | 1.14 ± 0.21 | 0.78 ± 0.12 | 0.844 ± 0.033 | 0.867 ± 0.13 | 2.74 |  |  | 
HCC1954 BREAST | 0.826 ± 0.073 | 1.02 ± 0.041 | 1.15 ± 0.24 | 1.06 ± 0.042 | 1.111 ± 0.0085 | 0.967 ± 0.088 | 0.637 ± 0.0081 | 0.723 ± 0.057 | 0.795 ± 0.12 | 0.797 ± 0.11 | 0.947 ± 0.039 | 1.04 ± 0.17 | 0.61 ± 0.082 | 0.549 ± 0.019 | 0.557 ± 0.0088 | 0.464 ± 0.012 | 3.08 | 3.2 | 2.54 | 
